Test results: article PMC11187126, “Structure and dynamics of the pyroglutamylated RF-amide peptide QRFP receptor GPR103” (Nature Communications, 2024)
Like-named read-outs stand apart in the source and are kept apart here. No end group written: not given here.

Target: T1, GPR103 T102^2.61A (Homo sapiens, UniProt Q96P65, T102A)
T1 construct: we used human full-length QRFPR-encoding plasmids; expressed in transfected cells; host or cells: HEK293 cells, pCAGGS vector
T1 sequence (Q96P65 1-431 T102A): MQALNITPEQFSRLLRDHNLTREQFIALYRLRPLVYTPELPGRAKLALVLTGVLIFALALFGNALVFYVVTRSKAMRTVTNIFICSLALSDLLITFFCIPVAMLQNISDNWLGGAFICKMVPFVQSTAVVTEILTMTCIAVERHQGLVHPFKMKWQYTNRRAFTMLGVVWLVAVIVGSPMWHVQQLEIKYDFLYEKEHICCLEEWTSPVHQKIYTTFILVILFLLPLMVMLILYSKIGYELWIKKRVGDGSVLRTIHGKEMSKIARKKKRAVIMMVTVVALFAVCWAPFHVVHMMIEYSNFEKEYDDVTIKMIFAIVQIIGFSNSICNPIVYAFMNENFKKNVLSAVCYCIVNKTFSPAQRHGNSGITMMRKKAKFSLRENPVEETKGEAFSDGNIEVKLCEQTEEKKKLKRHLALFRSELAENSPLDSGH
Assay: TGFα shedding assay; Exp. level WT (1:1)
Assay type: cell-based
Procedure: For the TGFα shedding assay and the flow cytometry analysis, we used human full-length QRFPR-encoding plasmids. Specifically, GPR103 was N-terminally modified with an HA signal sequence followed by a FLAG epitope and then a flexible linker ([…]; the FLAG epitope is underlined) and inserted into the pCAGGS vector. Plasmid encoding GPR103 mutants were generated using Quickchange Site-Directed Mutagensis kit (Agilent).
The TGFα shedding assay was performed as described previously with minor modifications. Plasmid transfection was performed in a 6-well plate with a mixture of 500 ng (per well in a 6-well plate) AP-TGFα-encoding plasmid and 200 ng GPR103-encoding plasmid. After 1-day culture, the transfected cells were harvested by trypsinization, pelleted by centrifugation at 190 × g for 5 min, and washed once with 5 mM HEPES (pH 7.4)-containing Hank’s Balanced Salt Solution (HBSS). After centrifugation, the cells were resuspended in 8 mL of the HEPES-containing HBSS. The cell suspension was seeded in a 96-well culture plate (cell plate) at a volume of 90 μL (per well hereafter) and incubated in a 37 °C incubator with 5% CO2 for 30 min. […] After spinning the cell plates at 190 × g for 2 min, 80 μL of conditioned media was transferred to an empty 96-well plate (conditioned media (CM) plate). Then, 80 μL of AP reaction solution (10 mM p-nitrophenylphosphate (p-NPP), 120 mM Tris-HCl (pH 9.5), 40 mM NaCl, and 10 mM MgCl2) was dispensed into the cell plates and the CM plates. Absorbance at 405 nm of the plates was measured using a microplate reader (SpectraMax 340 PC384, Molecular Devices) before and after 1-h incubation at room temperature. Ligand-induced AP-TGFα release was calculated by subtracting spontaneous AP-TGFα release signal from ligand-induced AP-TGFα release signal. The AP-TGFα release signals were fitted to a four-parameter sigmoidal concentration–response curve, using the Prism 10 software (GraphPad Prism). For each replicate experiment, the pEC50 parameter (negative logarithmic values of EC50 values) of the individual GPR103 mutants were normalized to that of the wild-type GPR103 performed in parallel, and resulting ∆pEC50 values were used to denote ligand response activity of the mutants. […]
Exp. le vel: WT (1:5 0)Exp. le vel: WT (1:5 0)Exp. le vel: WT (1:5 0)Exp. le vel: WT (1:2 0)Exp. le vel: WT (1:2 0)Exp. le vel: WT (1:1 0) […]
L1 4N - t e r mA F2 5N - t e r mA I 2 6N - t e r mA Y 2 9N - t e r mA C 9 82 .5 7A T10 22 .6 1A Exp . l eve l: WT (1 :5)Exp . l evel : >WT (1 :1)Exp. le vel: WT (1:2 0)Exp. le vel: WT (1:2 0)Exp. le vel: WT (1:5 0)Exp . l eve l: WT (1 :1) […]
Exp. le vel: WT (1:1 0)Exp. le vel: WT (1:2 0) C 1 1 83 .2 5AExp. le vel: WT (1:5 0)Exp. le vel: WT (1:5 0)Exp. le vel: WT (1:2 0)Exp . l eve l: WT (1 :5) […]
Exp. le vel: WT (1:5 0)Exp. le vel: WT (1:1 0)Exp. le vel: WT (1:5 0) E203ECL2AExp . l evel : >WT (1 :1)Exp. le vel: WT (1:5 0)Exp. le vel: WT (1:5 0) […]
Exp . l eve l: WT (1 :1) F28Exp. le vel: WT (1:5 0) C 2 8 56 .4 7AExp. le vel: WT (1:2 0) WExp. le vel: WT (1:2 0) F28Exp. le vel: WT (1:5 0)Exp . l evel : >WT (1 :1) […]
Exp. le vel: WT (1:5 0)Exp. le vel: WT (1:5 0) C 3 2 77 .4 8AExp . l eve l: WT (1 :5)Exp . l evel : >WT (1 :1)Exp . l evel : >WT (1 :1) […]
Suppl eme nt ary Figure 1 | Mutational analysis of GPR103. […]
mutants. Data are presented as mean values ± SEM, normally n=3-5; dots), each performed in triplicate. b-d Cell-surface expression (b) and QRFP26-in-duced activation of GPR103 (c, d) were analyzed by the flow cytometry and the TGFα shedding assay, respectively. From the concentration–response curves (a), Emax (c) and ΔpEC50 (d) values relative to the wild type were calculated. Colors in the mutant bars indicate an expression level matching to that of titrated wild type. Statistical analyses were performed using the ordinary one-way ANOVA followed by Dunnett tests with the expression-matched […]

Emax (Exp. #1): 102.50 % WT
Emax (Exp. #2): 94.07 % WT
Emax (Exp. #3): 109.18 % WT
Emax (mean, read-out: Emax): 102%
EC50 (n = 3): 20.4 nM
Emax (n = 3, read-out: Emax): 105 ± 3.6%
Substance: TSGPLGNLAEELNGYSRKKGGFSFRF-NH2 [QRFP26]
